Measurements published in patent US20170340742A1, “A METHOD FOR DELIVERING A SUBSTANCE INTO CELLS” (TECHNISCHE UNIVERSITÄT DARMSTADT, priority 2014, published 2017).
No end group written: not given here. Ahx = NCCCCCC(=O)O

Test system: living cells
Experiment: Comparative test of cellular penetration of cell-penetrating compounds with and without mediator compounds at low and high pH
Assay type: cell-based
Design: key: −: no uptake detectable; +: low efficiency of uptake detectable; ++: moderate efficiency of uptake detectable; +++: strong de efficiency of uptake detectable; ++++: very strong efficiency of uptake detectable
Conditions: compound 2 μM, 30 min
Method: A comparative test of cellular penetration of different cell-penetrating compounds was performed in the presence and absence of different mediator compounds at low and high pH. The cell-penetrating compounds (2 μM) and the mediator compounds (6 μM) were mixed in Hepes buffers at low pH (6.5) and high pH (8.5).
The cell media (DMEM) was removed and exchanged by these solutions and incubated for 30 min. Then the solutions were removed and the cells were embedded back in cell culture media (DMEM) and imaged. The efficiency of uptake in the different conditions was determined.
The determined efficacy is depicted with increasing efficacy from “−” no uptake detectable, “+” low efficiency of uptake detectable, “++” moderate efficiency of uptake detectable, “+++” strong de efficiency of uptake detectable, “++++” very strong efficiency of uptake detectable.

Measured: Efficiency of uptake

TAMRA-Ahx-LGQQQPFPPQQPY ({TAMRA-Ahx}-LGQQQPFPPQQPY)
−: Mediator 1: Curcumin 6 μM, high pH of 8.5 | Mediator 1: Curcumin 6 μM, low pH of 6.5 | Mediator 2: Levothyroxine 6 μM, high pH of 8.5 | Mediator 2: Levothyroxine 6 μM, low pH of 6.5 | no mediator, high pH of 8.5 | no mediator, low pH of 6.5
